Assay results: publication PMC9819389, “Antiandrogenic and Estrogenic Activity Evaluation of Oxygenated and Nitrated Polycyclic Aromatic Hydrocarbons Using Chemically Activated Luciferase Expression Assays” (International Journal of Environmental Research and Public …, 2022)
Read-outs that look alike come from different tables or passages of the source.

How the values were obtained:
[1] = system: U2OS-luc cells; experiment: MTT cell viability (cytotoxicity) assay; details: cell viability <80% considered cytotoxic
Procedure: (§1) All measurements were conducted in triplicate wells. They were repeated twice and trice in the AR- and ER-CALUX assays, respectively, for each concentration in dose–response curve. […] Cell viability was confirmed using 3-(4,5-dimethylthiazol-2-yl)-2,5-diphenyltetrazolium bromide (MTT) assay. If the cell viability was <80% in the positive control, the corresponding exposure dose was considered cytotoxic and excluded from the calculation.

[2] = target: T1, human AR (Homo sapiens, UniProt P10275); parameters: method as in Otsuki et al. [38]; key: +, positive; details: previous study; ref Otsuki et al. [38]; cited from earlier work
T1 sequence (P10275 1-920): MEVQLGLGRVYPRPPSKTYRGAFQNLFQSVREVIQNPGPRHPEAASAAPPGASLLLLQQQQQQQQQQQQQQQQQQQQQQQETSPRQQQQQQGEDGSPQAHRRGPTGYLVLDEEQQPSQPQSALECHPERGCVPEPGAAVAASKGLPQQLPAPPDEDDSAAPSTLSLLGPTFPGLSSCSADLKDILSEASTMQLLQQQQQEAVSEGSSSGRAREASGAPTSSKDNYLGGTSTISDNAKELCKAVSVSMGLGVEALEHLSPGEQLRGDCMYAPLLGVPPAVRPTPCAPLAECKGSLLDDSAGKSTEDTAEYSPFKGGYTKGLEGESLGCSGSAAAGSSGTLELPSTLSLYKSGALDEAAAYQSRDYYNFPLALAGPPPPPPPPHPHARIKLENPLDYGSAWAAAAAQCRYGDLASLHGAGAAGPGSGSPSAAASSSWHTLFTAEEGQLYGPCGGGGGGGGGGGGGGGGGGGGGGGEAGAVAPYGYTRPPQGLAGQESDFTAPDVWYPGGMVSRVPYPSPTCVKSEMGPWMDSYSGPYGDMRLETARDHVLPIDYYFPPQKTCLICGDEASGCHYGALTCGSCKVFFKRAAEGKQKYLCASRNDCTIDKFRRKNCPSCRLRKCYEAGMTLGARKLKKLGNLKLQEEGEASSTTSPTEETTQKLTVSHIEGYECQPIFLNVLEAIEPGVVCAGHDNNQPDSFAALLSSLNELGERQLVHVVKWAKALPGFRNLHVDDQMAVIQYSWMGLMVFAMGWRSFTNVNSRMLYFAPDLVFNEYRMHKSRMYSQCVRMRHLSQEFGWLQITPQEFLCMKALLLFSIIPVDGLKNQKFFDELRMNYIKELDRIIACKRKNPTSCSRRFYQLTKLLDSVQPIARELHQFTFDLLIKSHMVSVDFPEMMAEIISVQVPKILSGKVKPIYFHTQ

[3] = system: thyroid receptor (TR) α; parameters: method as in PMID 31071665; details: TRα activation; cited from earlier work
[4] = target: T1, human AR; experiment: AR-CALUX assay, antiandrogenic (AR antagonistic) activity, U2OS-luc cells; assay type: cell-based; parameters: host or cells: human U2OS-luc (osteoblastic osteosarcoma) cells; details: for inhibition of AR-mediated luciferase activity: coexposure to DHT at 10 nM (100 × EC50); for mode of AR inhibition: from coexposure to 10 nM DHT; for IC25 / REPmol (IC25): present study; for IC25: 24 h exposure with 100 pM DHT (EC50 level); for REPmol (IC25): molar relative potency to flutamide, IC25-based; for IC50: read-out: IC50
Procedure: (§2) The AR- and ER-CALUX assays for the polycyclic aromatic compounds were evaluated according to previously described methods, which used human U2OS-luc cells developed by BioDetection Systems b.v. (Amsterdam, The Netherlands). The cells are transfected stably with human AR and ER, respectively, and a luciferase reporter gene under their respective steroid receptor response elements. […] They were incubated at 37 °C in a humidified atmosphere containing 5% carbon dioxide. […] The medium was then removed, and the cells were lysed. A solution of luciferin was then added, and the luminescence intensity was measured with an ARVO™ X3 luminometer from PerkinElmer (Waltham, MA, USA). A sigmoid dose–response curve for a chemical was fitted to the Hill equation given by Equation (1) using SigmaPlot 11.0 from Systat Software Inc. (San Jose, CA, USA). y = min + (max − min)/(1 + (a1/x)^a^2)(1) where, y and x are the measured luciferase induction level and compound concentration, respectively. […] The REP values in mol base were obtained by dividing the ICs or ECs of the standard by the ICs or ECs of target compound, respectively.
as §1

[5] = target: T2, human ER (Homo sapiens, UniProt P03372); experiment: ER-CALUX assay, estrogenic activity, U2OS-luc cells; assay type: cell-based; parameters: host or cells: human U2OS-luc (osteoblastic osteosarcoma) cells; details: present study
T2 sequence (P03372 1-595): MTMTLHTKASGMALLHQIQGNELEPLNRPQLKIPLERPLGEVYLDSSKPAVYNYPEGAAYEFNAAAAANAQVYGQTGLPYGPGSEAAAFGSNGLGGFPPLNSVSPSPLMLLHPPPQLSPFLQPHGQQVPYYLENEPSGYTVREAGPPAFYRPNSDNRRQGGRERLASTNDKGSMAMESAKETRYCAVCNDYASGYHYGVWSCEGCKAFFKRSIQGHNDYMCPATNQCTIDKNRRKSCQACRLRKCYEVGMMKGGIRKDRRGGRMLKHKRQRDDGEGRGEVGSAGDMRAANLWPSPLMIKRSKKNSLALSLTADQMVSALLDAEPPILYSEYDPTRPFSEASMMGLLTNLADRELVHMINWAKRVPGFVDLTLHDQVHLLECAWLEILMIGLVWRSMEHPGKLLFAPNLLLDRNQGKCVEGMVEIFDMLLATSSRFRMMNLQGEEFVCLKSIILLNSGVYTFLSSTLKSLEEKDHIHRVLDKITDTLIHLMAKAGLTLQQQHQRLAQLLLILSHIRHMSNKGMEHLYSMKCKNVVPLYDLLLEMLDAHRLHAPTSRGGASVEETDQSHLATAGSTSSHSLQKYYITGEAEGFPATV

[6] = target: T1, human AR; experiment: AR-CALUX assay, androgenic (agonistic) activity; assay type: cell-based; parameters: host or cells: human U2OS-luc (osteoblastic osteosarcoma) cells; details: data not shown
Procedure: as §2

[7] = target: T2, human ER; parameters: method as in Machala et al. [36]; details: previous study; relative to E2; ref Machala et al. [36]; cited from earlier work
[8] = system: AR; details: previous study, relative to flutamide, cited from earlier work
[9] = system: AR; parameters: method as in Okamura et al. [22]; key: +, positive; details: previous study; ref Okamura et al. [22]; cited from earlier work
[10] = system: ER; parameters: method as in Pieterse et al. [30]; details: previous study; relative to E2; ref Pieterse et al. [30]; cited from earlier work
[11] = system: ER; details: previous study; relative to E2; ref Šimečková et al. [44]; cited from earlier work

SMILES | concentration at which cytotoxicity was confirmed [1] [nM] | antiandrogenic activity, Yeast [2] | mode of AR inhibition [4] | IC25 [4] [nM] | REPmol (IC25) [4] | IC50 [4] [nM] | REPmol, MVLN [7] | other results
O=C1c2ccccc2-c2ccc([N+](=O)[O-])c3cccc1c23 [3-NBAO, 3-nitro-7H-benz[de]anthracen-7-one] | 1000 | + | noncompetitive | 5.1 | 23 | 18 |  | REP50 to triiodothyronine (T3) [3]: 0.11; inhibition of AR-mediated luciferase activity ([4]; compound at 30 nM): 29%; inhibition of AR-mediated luciferase activity ([4]; compound at 300 nM): 60%
O=[N+]([O-])c1ccc2c3c(cccc13)-c1ccccc1-2 [3-NFA, 3-nitrofluoranthene] |  | + | noncompetitive | 5.3 | 32 | 14 |  | concentration above which inhibition of AR-mediated luciferase activity is attenuated (U-shaped curve) [4]: > 300 nM; attenuation of antiandrogenic activity ([4]; at high concentrations compared to at 100 nM): approximately 40%; inhibition of AR-mediated luciferase activity ([4]; compound at 100 nM): 26%; inhibition of AR-mediated luciferase activity ([4]; compound at 10 μM): 82%; concentration above which AR-mediated luciferase activity increases (U-shaped curve) ([4]; table entry): increase at > 0.3 μM; EC50 ([5]; 24 h exposure): U (< 10% response of 1 nM E2); REPmol (EC50) ([5]; molar relative potency to E2, EC50-based): U (< 10% response of 1 nM E2); concentration at which weak androgenic activity was observed [6]: ≥ 1 µM; maximum androgenic induction, relative to the EC50 level of DHT [6]: < 16%; Emax ([6]; read-out: maximum androgenic induction, level of maximum response of DHT exposure (10 nM)): < 8%
O=C1c2ccccc2C(=O)c2c1ccc1ccccc21 [BAQ, 7,12-benz[a]anthracenequinone] |  |  |  | 2500 | 0.056 | 6400 | 1.4 × 10^−6 | 
c1ccc2cc3c(ccc4ccccc43)cc2c1 [B[a]A, benz[a]anthracene] |  |  |  |  |  |  | 7.9 × 10^−7 | REPmol, U2OS ([8]; ref Alvarez-Muñoz et al. [28]): 1.3; REPmol, U2OS ([8]; ref Marin-Kuan et al. [29]): 0.4; antiandrogenic activity, PC3 [9]: +; REPmol, U2OS [10]: <2 × 10^−9; REPmol, T47D [11]: 1.6 × 10^−6
O=C1C(=O)c2ccccc2-c2ccccc21 [PhQ, phenanthrenequinone] | 1000 |  |  | 180 | 0.63 | 390 |  | 
